# In patent US20230322776A1, “NEW ARYL-PYRIDO-PYRIMIDIN-ONE DERIVATIVES” (Hoffmann-La Roche Inc., priority 2020, published 2023):
# How the values were obtained:
# BRAF V660E = BRAF V660E (Homo sapiens, UniProt P15056, V600E); assay: KD BRAF V660E (Table 1; no method described); type: binding
# BRAF = BRAF (Homo sapiens, UniProt P15056); assay: KD BRAF (Table 1; no method described); type: binding
# [1] = system: A375 cells (V600E mutated BRAF), ERK phospho-T202/Y204; assay: HTRF assay for P-ERK determination in A375 cells (BRAF inhibition); type: cell-based; conditions: Homo sapiens, A-375, 1 hour drug incubation, DMSO = 100%, 10 μM Dabrafenib = 0%, top concentration 10 μM, read-out: P-ERK_A375: IC50
# Outline: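 A375 cells (V600E BRAF), 8000/well, treated 1 h with compounds at 0.001–10 μM final in duplicate; lysed and phospho-ERK (Thr202/Tyr204) read by HTRF at 665/620 nm after overnight RT incubation. Blank-subtracted ratios normalized to DMSO (100%) and 10 μM dabrafenib (0%); IC50 from sigmoidal fit.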
# [2] = system: HCT116 cells (WT BRAF), ERK phospho-T202/Y204; assay: HTRF assay for P-ERK determination in HCT116 cells (BRAF activation, paradox); type: cell-based; conditions: for EC50: Homo sapiens, HCT-116, HCT116 cells, 1 hour drug incubation, activation relative to maximum Dabrafenib-mediated activation (100%), top concentration 10 μM, read-out: P-ERK_HCT-116: EC50—50PCT; for Fold Selectivity HCT-116 EC50-50/ A375: ratio of P-ERK HCT-116 EC50-50PCT to P-ERK A375 IC50
# Outline: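 HCT116 (WT BRAF) cells, 8000/well in DMEM + 10% FBS, treated 1 h with compound at 0.001–10 μM in duplicate; lysed, then HTRF antibodies for ERK phospho-T202/Y204, read after overnight dark incubation at room temperature. Blank-subtracted ratio normalized to DMSO (0%) and peak dabrafenib signal (100%); sigmoidal or bell-shaped fit gives % activation.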
# Chain of BRAF (P15056 whole entry): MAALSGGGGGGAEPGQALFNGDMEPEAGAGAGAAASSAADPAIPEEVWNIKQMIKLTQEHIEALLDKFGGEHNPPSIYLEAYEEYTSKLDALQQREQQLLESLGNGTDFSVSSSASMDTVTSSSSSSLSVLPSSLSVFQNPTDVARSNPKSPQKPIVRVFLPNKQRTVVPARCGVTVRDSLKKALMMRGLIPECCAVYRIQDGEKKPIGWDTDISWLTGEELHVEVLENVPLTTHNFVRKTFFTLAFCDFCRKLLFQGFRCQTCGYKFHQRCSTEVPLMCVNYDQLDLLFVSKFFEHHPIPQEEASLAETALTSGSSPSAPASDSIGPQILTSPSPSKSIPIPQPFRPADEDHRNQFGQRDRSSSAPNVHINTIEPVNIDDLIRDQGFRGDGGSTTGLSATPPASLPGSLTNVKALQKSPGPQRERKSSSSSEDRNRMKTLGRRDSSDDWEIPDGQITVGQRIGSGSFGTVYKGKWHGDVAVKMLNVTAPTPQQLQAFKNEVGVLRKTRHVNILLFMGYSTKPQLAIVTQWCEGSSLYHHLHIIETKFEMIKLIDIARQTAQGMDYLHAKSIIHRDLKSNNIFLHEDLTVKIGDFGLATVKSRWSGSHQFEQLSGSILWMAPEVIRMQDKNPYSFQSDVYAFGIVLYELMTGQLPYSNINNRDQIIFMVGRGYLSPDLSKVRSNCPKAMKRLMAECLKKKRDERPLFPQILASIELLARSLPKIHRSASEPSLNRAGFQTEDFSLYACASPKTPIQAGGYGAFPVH
# Chain of BRAF V660E (P15056 2-766 V600E): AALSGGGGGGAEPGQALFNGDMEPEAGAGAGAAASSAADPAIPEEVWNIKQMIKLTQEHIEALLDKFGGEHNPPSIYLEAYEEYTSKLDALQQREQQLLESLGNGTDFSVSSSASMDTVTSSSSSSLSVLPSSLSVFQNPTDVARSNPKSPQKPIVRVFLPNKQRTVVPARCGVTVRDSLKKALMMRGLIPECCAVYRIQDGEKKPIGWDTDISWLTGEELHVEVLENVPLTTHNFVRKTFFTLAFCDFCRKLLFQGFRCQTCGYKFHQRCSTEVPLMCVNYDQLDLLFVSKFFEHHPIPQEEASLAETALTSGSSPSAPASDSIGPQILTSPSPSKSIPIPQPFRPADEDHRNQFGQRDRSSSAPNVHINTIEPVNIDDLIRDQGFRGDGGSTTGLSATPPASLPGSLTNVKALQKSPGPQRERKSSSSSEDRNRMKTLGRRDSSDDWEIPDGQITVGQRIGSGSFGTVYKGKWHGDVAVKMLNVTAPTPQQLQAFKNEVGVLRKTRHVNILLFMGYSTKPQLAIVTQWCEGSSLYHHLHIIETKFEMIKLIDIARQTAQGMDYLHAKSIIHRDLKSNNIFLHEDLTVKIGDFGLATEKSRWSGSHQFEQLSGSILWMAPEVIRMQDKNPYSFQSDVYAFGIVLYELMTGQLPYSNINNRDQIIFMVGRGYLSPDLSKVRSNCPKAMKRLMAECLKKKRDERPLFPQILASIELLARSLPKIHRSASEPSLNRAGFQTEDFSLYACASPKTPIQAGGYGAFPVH
Compound,Kd (BRAF V660E) [nM],Kd (BRAF) [nM],IC50 [1] [nM],EC50 [2] [nM],Fold Selectivity HCT-116 EC50-50/ A375 [2]
"Cl.NCCOCCOCCn1c(=O)c(-c2c(F)ccc(NS(=O)(=O)N3CC[C@@H](F)C3)c2F)cc2cnc(NCC3CC3)nc21 [Example 39, (3R)—N-[3-[8-[2-[2-(2-aminoethoxy)ethoxy]ethyl]-2-(cyclopropylmethylamino)-7-oxopyrido[2,3-d]pyrimidin-6-yl]-2,4-difluorophenyl]-3-fluoropyrrolidine-1-sulfonamide; hydrochloride]",41.3,13.4,≥ 10000,≥ 10000,1.0
"CC(=O)NCCOCCOCCn1c(=O)c(-c2c(F)ccc(NS(=O)(=O)N3CC[C@@H](F)C3)c2F)cc2cnc(NCC3CC3)nc21 [Example 41, N-[2-[2-[2-[2-(cyclopropylmethylamino)-6-[2,6-difluoro-3-[[(3R)-3-fluoropyrrolidin-1-yl]sulfonylamino]phenyl]-7-oxopyrido[2,3-d]pyrimidin-8-yl]ethoxy]ethoxy]ethyl]acetamide]",56.1,21.2,844,≥ 10000,>11.8
"CC(=O)N[C@H]1C[C@H](n2c(=O)c(-c3c(F)ccc(NS(=O)(=O)N4CC[C@@H](F)C4)c3F)cc3cnc(NCC4CC4)nc32)C1 [Example 43, trans-N-[3-[2-(cyclopropylmethylamino)-6-[2,6-difluoro-3-[[(3R)-3-fluoropyrrolidin-1-yl]sulfonylamino]phenyl]-7-oxopyrido[2,3-d]pyrimidin-8-yl]cyclobutyl]acetamide]",12.9,5.5,108,404,3.7
"CCN(C)S(=O)(=O)Nc1ccc(F)c(-c2cc3cnc(NCC4CC4)nc3n(CCOCc3ccccc3)c2=O)c1F [Example 44, 2-(Cyclopropylmethylamino)-6-[3-[[ethyl(methyl)sulfamoyl]amino]-2,6-difluorophenyl]-7-oxo-8-(2-phenylmethoxyethyl)pyrido[2,3-d]pyrimidine]",1750,1380,1900,≥ 10000,>5.3
"Cn1c(=O)c(-c2c(F)ccc(NS(=O)(=O)N3CC[C@@H](F)C3)c2F)cc2cnc(NCCc3ccc(CC(=O)OC(C)(C)C)cc3)nc21 [Example 46, tert-butyl 2-[4-[2-[[6-[2,6-difluoro-3-[[(3R)-3-fluoropyrrolidin-1-yl]sulfonylamino]phenyl]-8-methyl-7-oxopyrido[2,3-d]pyrimidin-2-yl]amino]ethyl]phenyl]acetate]",224,96.7,64.2,3530,55.0
"COC(=O)Cc1cccc(CCNc2ncc3cc(-c4c(F)ccc(NS(=O)(=O)N5CC[C@@H](F)C5)c4F)c(=O)n(C)c3n2)c1 [Example 47, methyl 2-[3-[2-[[6-[2,6-difluoro-3-[[(3R)-3-fluoropyrrolidin-1-yl]sulfonylamino]phenyl]-8-methyl-7-oxopyrido[2,3-d]pyrimidin-2-yl]amino]ethyl]phenyl]acetate]",23.2,9.2,38.5,4470,116.0
"Cn1c(=O)c(-c2c(F)ccc(NS(=O)(=O)N3CC[C@@H](F)C3)c2F)cc2cnc(NCCc3cnc(CC(=O)OC(C)(C)C)nc3)nc21 [Example 48, tert-butyl 2-[5-[2-[[6-[2,6-difluoro-3-[[(3R)-3-fluoropyrrolidin-1-yl]sulfonylamino]phenyl]-8-methyl-7-oxopyrido[2,3-d]pyrimidin-2-yl]amino]ethyl]pyrimidin-2-yl]acetate]",56.6,26.6,176,5920,33.7
"CC(=O)N1Cc2ccc(CCNc3ncc4cc(-c5c(F)ccc(NS(=O)(=O)N6CC[C@@H](F)C6)c5F)c(=O)n(C)c4n3)cc2C1 [Example 49, (3R)—N-[3-[2-[2-(2-Acetyl-1,3-dihydroisoindol-5-yl)ethylamino]-8-methyl-7-oxopyrido[2,3-d]pyrimidin-6-yl]-2,4-difluorophenyl]-3-fluoropyrrolidine-1-sulfonamide]",6.5,2.5,8.4,989,117.8
"CC(=O)N1CCc2ccc(CCNc3ncc4cc(-c5c(F)ccc(NS(=O)(=O)N6CC[C@@H](F)C6)c5F)c(=O)n(C)c4n3)cc2C1 [Example 50, (3R)-N-[3-[2-[2-(2-acetyl-3,4-dihydro-1H-isoquinolin-7-yl)ethylamino]-8-methyl-7-oxopyrido[2,3-d]pyrimidin-6-yl]-2,4-difluorophenyl]-3-fluoropyrrolidine-1-sulfonamide]",13.8,4.5,15,1550,103.6
